The text below walks through data of patent US4427698A, “Use of N,N-dimethyl-N'-p-tolyl-N'-dichlorofluoromethylthio-sulphamide for combating fungi which damage wood” (Bayer Aktiengesellschaft, priority 1978, dated 1984).

One series deals with Coriolus versicolor. The series can be described thus: activity against wood-damaging fungi. The format is cell-based.
A further series has as its system Lentinus tigrinus. The series can be described thus: MIC determination in agar (beer wort and peptone). The format is cell-based. How it is done: (§1) Determination of the minimum inhibitory concentration (MIC)
(§2) The active compound according to the invention is added, in concentrations of 2 mg/l to 5,000 mg/l, to an agar which is prepared from beer wort and peptone. After storing for 2 weeks at 28° C. and 60-70% relative atmospheric humidity the MIC is determined.

In a further series the test system is Ceratocystis pini. The series can be described thus: MIC determination in agar (beer wort and peptone). The class given is cell-based. How it is done:
as §1, §2

A further series concerns Chaetomium globosum. The series can be described thus: MIC determination in agar (beer wort and peptone). The class given is cell-based. How it is done: as §1, §2
Series [1] has as its system Ceratocystis coerulenceus. The series is described as follows: MIC determination in agar (beer wort and peptone). The class given is cell-based. On the procedure: as §1, §2
For a further series, the system named is Poria Vaporaria. The series can be described thus: MIC determination in agar (beer wort and peptone). The format is cell-based. On the procedure:
as §1, §2

In a further series the test system is Coniophora cerebella. The series can be described thus: MIC determination in agar (beer wort and peptone). The class given is cell-based. On the procedure:
as §1, §2

The nature of series [2]: Solubilities in % by weight. The class given is physicochemical. The source says: Solubilities in % by weight of N,N-dimethyl-N'-p-tolyl-N'-dichlorofluoromethylthio-sulphamide (A) compared with N,N-dimethyl-N'-phenyl-N'-dichlorofluoromethylthio-sulphamide (B) and N-dichlorofluoromethylthio-phthalimide (C).
Series [3] in a line: cumulative and percutaneous toxic action. The format is in vivo. Particulars: in contrast to known active compounds, for example pentachlorophenol.
Series [4] in a line: Cutaneous treatment of male rats. The class given is in vivo, rat. Particulars: rat, in vivo, topical or ocular, read-out: LD50 cutaneously.
In series [5] the test system is male rats. The series can be described thus: Cutaneous treatment of male rats. The class given is in vivo, rat. The following applies: cutaneous treatment.
Series [6] is described as follows: Peroral toxicity, single administration by probang to male rats. Particulars: rat, in vivo, po, dissolved in acetone, Probit analysis, read-out: LD50 perorally. How it is done:
The LD50 was calculated by means of Probit analysis (Fink et al, Methods of information in medicin 5, 19, 1966).

The next series has as its system Ceratocystis piceae. The series can be described thus: activity against wood-damaging fungi. The class given is cell-based.
A further series relates to rats. Particulars: Caines, Toxycology and Applied Pharmacology 14, 515 (1969); cited from earlier work.
Series [7] deals with male rats. Particulars: comparison substance pentachlorophenol; cited from earlier work.
[8] abbreviates: 336 h, 2 weeks at 28° C., 60-70% relative humidity.
Where [9] appears, read: Benzine fraction, boiling point 140-190° C.
The mark [10] stands for this setting: Mixture of aromatic hydrocarbons, boiling point 159-175° C.

Values after ≈ are worked out from the molar mass of the structure shown. Some results are limits rather than exact numbers.

As to `Cc1ccc(N(SC(F)(Cl)Cl)S(=O)(=O)N(C)C)cc1` [A, N,N-dimethyl-N'-p-tolyl-N'-dichlorofluoromethylthio-sulphamide], the “active against wood-damaging fungi” value (in the series with Coriolus versicolor; in the series with Lentinus tigrinus; in the series on Ceratocystis pini; in the series with Chaetomium globosum; in [1]; in the series on Poria Vaporaria (Poria vaporaria)) was “active” each time. Besides, the “active against wood-damaging fungi” value with Coniophora cerebella and with Ceratocystis piceae was “active” in each case. For the same compound, the minimal inhibitory concentration (MIC) (in general, the lowest concentration that inhibits growth of the organism) was 5 µg/mL (≈ 14.4 µM) with Lentinus tigrinus (setting [8]); 20 µg/mL (≈ 57.6 µM) with Ceratocystis pini (setting [8]); 10 µg/mL (≈ 28.8 µM) against Chaetomium globosum (setting [8]); 20 µg/mL (≈ 57.6 µM) in series [1] (setting [8]); 2 µg/mL (≈ 5.76 µM) in the series with Poria Vaporaria (336 h, Poria Vaporaria, 2 weeks at 28° C., 60-70% relative humidity); 10 µg/mL (≈ 28.8 µM) against Coniophora cerebella (setting [8]). The Solubility in series [2] (setting [9]) is on record as 2.5 % by weight; in series [2] (Ethyl acetate), 33 % by weight; in series [2] (Methanol), 5 % by weight; in series [2] (setting [10]) it was 20 % by weight; in series [2] (Xylene), 29 % by weight. Moreover, the “solubility (in words)” value in series [2] (organic solvents) was “very readily soluble”. Moreover, the “cumulative or percutaneous toxic action (in words)” value in series [3] is “neither a cumulative nor a percutaneous toxic action”. In addition, the 50% lethal dose (LD50) (in general, the dose at which mortality reaches 50%) in series [4] was more than 500 mg/kg; in series [6] it was more than 2500 mg/kg. Further, the “percutaneous toxicity compared with the other sulphamide (in words)” value in the series on male rats [5] is on record as “just as low a toxicity”.
For `CN(C)S(=O)(=O)N(SC(F)(Cl)Cl)c1ccccc1` [B, N,N-dimethyl-N'-phenyl-N'-dichlorofluoromethylthio-sulphamide], the Solubility in [2] (setting [9]) is reported as 1.2 % by weight; in [2] (Ethyl acetate), 11 % by weight; in series [2] (Methanol), 1.5 % by weight; in series [2] (setting [10]), 7.5 % by weight; in [2] (Xylene) it was 6.5 % by weight. Further, in series [2] (formulating agents customary for wood protection agents), the “solubility (in words)” value was “very poor solubility”.
Turning to `Oc1c(Cl)c(Cl)c(Cl)c(Cl)c1Cl` [Pentachlorophenol], the LD50 perorally in the series with rats is listed as 160 mg/kg of body weight. Moreover, in the series with male rats [7], the LD50 cutaneously is on record as 325 mg/kg and the “percutaneous toxic action (in words)” value is given as “has a toxic action”.
